According to patent publication US6645917B2, “Composition for hybrid seed production, process for the preparation of such composition and use thereof” (Council of Scientific and Industrial Research, priority 2002, dated 2003):
Like-named read-outs stand apart in the source and are kept apart here.

Tests used:
wheat [1] = settings: cited from earlier work
wheat plants = assay: Spray of chemicals in combinations and as individual molecules on wheat plants (Table 3); type: in vivo
Description: The effects of the composition with varied concentration of compound 1 and 2 were evaluated for two crops years. The aqueous solution of the compositions were sprayed on the wheat plants when the Spike length of 7-12 mm. i.e. growth of 20-22 of Zadoks scale, reached between 40-50 days after germination.
In a future of the present invention the calculation of male/female sterility is based on number of seeds and is done as per formula given below:
Male Sterility (%)=(Untreated Control−Bagged Spikes×100/Untreated Control
Female Sterility (%)=(Untreated Control−Bagged Spikes)×100/Untreated Control
The chemical formulation can be used at a rate of 1.8 kg/ha or below (following male: female ratio of 1:2) depending upon genotypes used, date of planting and growth stage. The female lines were sprayed with the chemical combination at the appropriate growth stage and concentration. The spike of 7-12 mm i.e. growth stage 20-22 of Zadoks scale (Zadoks J V, Chang T T and Konzak C F 1974. Weed Research 14: 415421) was ideal for generating effective male sterility in spring wheat. This stage is reached between 40-50 days after germination at optimum time of sowing in most of the genotypes. The date of spray varied depending upon the genotype used. A high volume spray pump may be used so as to cover the complete female plant.

wheat [2] = system: wheat; design: Effective dose: unit not given beside the values; settings: cited from earlier work; for Female sterility / Germination (%) / Max. seed shriveling (Scale 1-5) / Seed setting: at effective dose; for Female sterility / Germination (%) / Max. seed shriveling (Scale 1-5) / Seed setting / Effective dose: 7-8 mm spike length; for Effective dose: minimum effective dose for complete male sterility
[3] = wheat, side effects on plant and seed
[4] = at minimum effective dose for complete male sterility

SMILES: CC(Cl)(CCl)C(=O)[O-].[Na+] (stereo not shown) [Mendok]
- Remarks (wheat [1]; in vivo): Severe plant damage,
- Sterility (optimum treatment) Female (wheat [1]; in vivo): Significant
- Sterility (optimum treatment) Male (wheat [1]; wheat, optimum treatment): Poor

SMILES: Cc1cc(C)n(-c2ccc(Cl)cc2)c(=O)c1C(=O)[O-].[Na+] [RH-531]
- Sterility (optimum treatment) Female (wheat [1]; wheat, optimum treatment): Significant
- Sterility (optimum treatment) Male (wheat [1]; wheat, optimum treatment): High
- Remarks (wheat [1]; [3]): Inhibit veg. Growth

SMILES: Cc1cc(=O)c(C(=O)[O-])nn1-c1ccc(Cl)cc1.[K+] [CH9701, potassium 1-[4-chlorophenyl]-1,4 dihydro-6-methyl-4-oxopyridazine-3-carboxylate]
- Female sterility (wheat plants): high female sterility
- damage to florets (wheat plants): damage to florets
- male sterility (wheat plants): complete male sterility
- seed set (wheat plants): low seed set
- female sterility (CH9701 compared with CH9832) (wheat [2]; [4]): higher
- seed germination (CH9701 compared with CH9832) (wheat [2]; [4]): comparable
- seed shriveling (CH9701 compared with CH9832) (wheat [2]; [4]): higher
- Female sterility (wheat [2]; variety PBW343): 88.3
- Germination (%) (wheat [2]; variety PBW343): 95%
- Max. seed shriveling (Scale 1-5) (wheat [2]; variety PBW343): 3
- Seed setting (wheat [2]; variety PBW343): 20.0
- Effective dose (wheat [2]; variety PBW343): 500
- Female sterility (wheat [2]; variety WH542): 90.7
- Germination (%) (wheat [2]; variety WH542): 85%
- Max. seed shriveling (Scale 1-5) (wheat [2]; variety WH542): 2
- Seed setting (wheat [2]; variety WH542): 56.7
- Effective dose (wheat [2]; variety WH542): 250

SMILES: C=C1C[C@]23C[C@@]1(O)CC[C@H]2[C@@]12C=C[C@H](O)[C@@](C)(C(=O)O1)[C@H]2[C@@H]3C(=O)O [Gibberellic acid]
- Sterility (optimum treatment) Male (wheat [1]; wheat, optimum treatment): Poor

SMILES: COc1nc(=O)n(-c2ccc(Cl)cc2)c(=O)[nH]1.OCCN(CCO)CCO [DPX 3778]
- Sterility (optimum treatment) Female (wheat [1]; wheat, optimum treatment): Sight
- Sterility (optimum treatment) Male (wheat [1]; wheat, optimum treatment): High
- Remarks (wheat [1]; [3]): Shorter plant, leaf

SMILES: Cc1cc(=O)c(C(=O)[O-])nn1-c1ccc(F)c(Cl)c1.[K+] [CH9832, potassium 1-[4-fluoro, 3-chlorophenyl]-1,4 dihydro6-methyl-4-oxopyridazine-3-carboxylate]
- Female sterility (wheat plants): low female sterility
- damage to florets (wheat plants): no damage to florets
- male sterility (wheat plants): complete male sterility
- seed set (wheat plants): low seed set
- seed germination (CH9701 compared with CH9832) (wheat [2]; [4]): comparable
- seed setting (CH9832 compared with CH9701) (wheat [2]; [4]): numerically higher
- Female sterility (wheat [2]; variety PBW343): 40.2
- Germination (%) (wheat [2]; variety PBW343): 90%
- Max. seed shriveling (Scale 1-5) (wheat [2]; variety PBW343): 2
- Seed setting (wheat [2]; variety PBW343): 49.0
- Effective dose (wheat [2]; variety PBW343): 500
- Female sterility (wheat [2]; variety WH542): 10.7
- Germination (%) (wheat [2]; variety WH542): 65%
- Max. seed shriveling (Scale 1-5) (wheat [2]; variety WH542): 2
- Seed setting (wheat [2]; variety WH542): 65.5
- Effective dose (wheat [2]; variety WH542): 500

SMILES: CC(Cl)(Cl)C(=O)O [Dalapon]
- Sterility (optimum treatment) Female (wheat [1]; wheat, optimum treatment): Severe
- Sterility (optimum treatment) Male (wheat [1]; wheat, optimum treatment): Partial
- Remarks (wheat [1]; [3]): Severe plant damage

SMILES: O=P(O)(O)CCCl [Ethephon]
- Sterility (optimum treatment) Female (wheat [1]; wheat, optimum treatment): Significant
- Sterility (optimum treatment) Male (wheat [1]; wheat, optimum treatment): High
- Remarks (wheat [1]; [3]): Height and seed size

SMILES: Cc1cc(=O)c(C(=O)[O-])nn1-c1ccc(Cl)cc1.[K+] [Hybrex]
- Remarks (wheat [1]; in vivo): Risk of damage
- Sterility (optimum treatment) Female (wheat [1]; in vivo): Slight
- Sterility (optimum treatment) Male (wheat [1]; wheat, optimum treatment): High

SMILES: O=C(O)C1CNC1 [WL 84811]
- Sterility (optimum treatment) Female (wheat [1]; wheat, optimum treatment): Very
- Sterility (optimum treatment) Male (wheat [1]; wheat, optimum treatment): Nearly
- Remarks (wheat [1]; [3]): Toxic residues in F1
